Assay results from patent publication US9260429B2, “Pyrido[3,4-B]indoles and methods of use” (Medivation Technologies, Inc., priority 2008, dated 2016).
Where two headings read alike, the source gives them in different places.

Key:
[1] = molecular target: T1, human recombinant adrenergic α2A receptor (Homo sapiens, UniProt P08913); assay: Adrenergic α2A radioligand binding ([3H]MK-912)
T1 construct: expressed in transfected cells; host or cells: insect Sf9 cells
T1 sequence (P08913 1-465): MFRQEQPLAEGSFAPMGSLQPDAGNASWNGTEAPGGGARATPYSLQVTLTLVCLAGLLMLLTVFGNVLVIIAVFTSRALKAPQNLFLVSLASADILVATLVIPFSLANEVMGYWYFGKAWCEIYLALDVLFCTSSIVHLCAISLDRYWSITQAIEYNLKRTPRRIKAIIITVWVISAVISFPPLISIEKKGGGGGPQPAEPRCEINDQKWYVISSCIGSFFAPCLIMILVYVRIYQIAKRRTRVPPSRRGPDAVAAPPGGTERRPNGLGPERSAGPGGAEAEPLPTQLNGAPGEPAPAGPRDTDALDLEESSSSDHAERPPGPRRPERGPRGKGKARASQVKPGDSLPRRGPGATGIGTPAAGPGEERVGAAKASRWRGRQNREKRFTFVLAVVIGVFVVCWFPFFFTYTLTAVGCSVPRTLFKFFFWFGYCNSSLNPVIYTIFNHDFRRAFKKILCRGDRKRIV
Description: To evaluate in radioligand binding assays the activity of compounds of the invention, human recombinant adrenergic α2A receptor expressed in insect Sf9 cells (Uhlen S et al. J Pharmacol Exp Ther. 271:1558, 1994) in a modified Tris-HCl buffer (50 mM Tris-HCl, pH 7.4, 12.5 mM MgCl2, 2 mM EDTA) was used. Compounds of invention were incubated with 1 nM [^3H]MK-912 for 60 minutes at 25° C. MK912 is (2S-trans)-1,3,4,5′,6,6′,7,12b-octahydro-1′,3′-dimethyl-spiro[2H-benzofuro[2,3-a]quinolizine-2,4′(1′H)-pyrimidin]-2′(3′H)-one hydrochloride Non-specific binding was estimated in the presence of 10 μM WB-4101 (2-(2,6-Dimethoxyphenoxyethyl)aminomethyl-1,4-benzodioxane hydrochloride). Receptor proteins were filtered and washed, the filters were then counted to determine [^3H]MK-912 specifically bound. Compounds were screened at 1 μM or lower, using 1% DMSO as vehicle. Biochemical assay results are presented as the percent inhibition of specific binding in Table 4.

[2] = molecular target: T2, human recombinant adrenergic α2B receptor (Homo sapiens, UniProt P18089); assay: Adrenergic α2B radioligand binding ([3H]Rauwolscine)
T2 construct: expressed in transfected cells; host or cells: CHO-K1 cells
T2 sequence (P18089 1-450): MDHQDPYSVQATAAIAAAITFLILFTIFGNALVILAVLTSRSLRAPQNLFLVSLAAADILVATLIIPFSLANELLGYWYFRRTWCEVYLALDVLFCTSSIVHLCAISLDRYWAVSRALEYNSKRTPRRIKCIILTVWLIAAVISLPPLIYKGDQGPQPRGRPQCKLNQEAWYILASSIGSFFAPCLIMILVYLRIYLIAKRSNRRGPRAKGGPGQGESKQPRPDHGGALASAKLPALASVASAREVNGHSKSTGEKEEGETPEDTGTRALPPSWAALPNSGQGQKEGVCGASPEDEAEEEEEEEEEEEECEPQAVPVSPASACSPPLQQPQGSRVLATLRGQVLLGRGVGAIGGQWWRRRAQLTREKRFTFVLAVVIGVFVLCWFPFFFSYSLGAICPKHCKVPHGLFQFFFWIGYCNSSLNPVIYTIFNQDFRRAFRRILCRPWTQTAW
Description: To evaluate in radioligand binding assays the activity of compounds of the invention, human recombinant adrenergic α2B receptor expressed in Chinese hamster ovary (CHO-K1) cells (Uhlen S et al. Eur J. Pharmacol. 343(1):93, 1998) in a modified Tris-HCl buffer (50 mM Tris-HCl, pH 7.4, 12.5 mM MgCl2, 1 mM EDTA, 0.2% BSA) was used. Compounds of the invention were incubated with 2.5 nM [^3H]Rauwolscine for 60 minutes at 25° C. Non-specific binding was estimated in the presence of 10 μM Prozosin. Receptor proteins were filtered and washed, the filters were then counted to determine [^3H]Rauwolscine specifically bound. Compounds were screened at 1 μM or lower, using 1% DMSO as vehicle. Biochemical assay results are presented as the percent inhibition of specific binding in Table 4.

[3] = molecular target: T3, human recombinant serotonin (5-Hydroxytryptamine) 5-HT2C receptor (Homo sapiens, UniProt P28335); assay: Serotonin 5-HT2C radioligand binding ([3H]Mesulergine)
T3 construct: expressed in transfected cells; host or cells: CHO-K1 cells
T3 sequence (P28335 33-458): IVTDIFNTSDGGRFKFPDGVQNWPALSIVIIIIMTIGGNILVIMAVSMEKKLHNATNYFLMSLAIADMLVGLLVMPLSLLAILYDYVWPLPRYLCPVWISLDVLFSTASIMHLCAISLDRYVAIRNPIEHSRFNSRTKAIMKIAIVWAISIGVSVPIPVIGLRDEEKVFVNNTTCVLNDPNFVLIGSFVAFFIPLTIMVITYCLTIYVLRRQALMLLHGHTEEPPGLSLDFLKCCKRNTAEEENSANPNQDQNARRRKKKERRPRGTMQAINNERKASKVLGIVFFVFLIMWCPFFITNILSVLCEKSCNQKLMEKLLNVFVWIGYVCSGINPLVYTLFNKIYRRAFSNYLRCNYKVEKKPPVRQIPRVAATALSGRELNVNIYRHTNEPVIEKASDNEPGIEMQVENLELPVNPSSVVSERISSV
Description: Compounds of the invention were incubated with 1 nM [^3H]Mesulergine for 60 minutes at 25° C. Non-specific binding was estimated in the presence of 1 μM Mianserin. Receptor proteins were filtered and washed, the filters were then counted to determine [^3H]Mesulergine specifically bound. […] Biochemical assay results are presented as the percent inhibition of specific binding in Table 5.

[4] = molecular target: T4, human recombinant histamine H2 receptor (Homo sapiens, UniProt P25021); assay: Histamine H2 radioligand binding ([125I]Aminopotentidine)
T4 construct: expressed in transfected cells; host or cells: CHO-K1 cells
Description: To evaluate in radioligand binding assays the activity of compounds of the invention, human recombinant histamine H2 receptor expressed in Chinese hamster ovary (CHO) K1 cells (Ruat, M., Proc. Natl. Acad. Sci. USA. 87(5):1658, 1990) in a 50 mM Phosphate buffer, pH 7.4 was used. Compounds of the invention were incubated with 0.1 nM [^125I]Aminopotentidine for 120 minutes at 25° C. Non-specific binding was estimated in the presence of 3 μM Tiotidine. Receptor proteins were filtered and washed, the filters were then counted to determine [^125I]Aminopotentidine specifically bound. Compounds were screened at 1 μM or lower, using 1% DMSO as vehicle. Biochemical assay results are presented as the percent inhibition of specific binding in Table 3.

[5] = 1 h, read-out: Percent Inhibition of ligand binding Adrenergic (1 μM ligand conc.) α2A
[6] = 1 h, read-out: Percent Inhibition of ligand binding Adrenergic (1 μM ligand conc.) α2B
[7] = 1 h, read-out: Percent Inhibition of ligand binding Serotonin (1 μM ligand concentration) 5-HT2C
[8] = 1 μM, inhibition of specific [125I]Aminopotentidine binding, read-out: Binding data (Percentage Inhibition) Histamine Binding (1 μM) H2

T4 sequence (P25021 whole entry): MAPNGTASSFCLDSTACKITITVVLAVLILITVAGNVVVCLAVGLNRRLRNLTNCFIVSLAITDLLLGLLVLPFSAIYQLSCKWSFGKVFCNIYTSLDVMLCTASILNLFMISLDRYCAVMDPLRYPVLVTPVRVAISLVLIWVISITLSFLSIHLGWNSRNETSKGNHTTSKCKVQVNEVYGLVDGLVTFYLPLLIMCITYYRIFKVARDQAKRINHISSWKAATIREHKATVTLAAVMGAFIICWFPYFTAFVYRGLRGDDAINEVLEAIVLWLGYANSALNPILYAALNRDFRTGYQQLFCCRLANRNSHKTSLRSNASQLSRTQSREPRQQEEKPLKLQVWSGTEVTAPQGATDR

Row | SMILES | inhibition at 1 µM [1, 5] [%] | inhibition at 1 µM [2, 6] [%] | inhibition at 1 µM [3, 7] [%] | inhibition at 1 µM [4, 8] [%] | Percent Inhibition of ligand binding Serotonin (1 μM ligand concentration) 5-HT2C [3] [%] | inhibition at 1 µM ([1]; compound concentration 1 μM, read-out: Percentage inhibition of ligand binding to Adrenergic α2A receptor) [%] | inhibition at 1 µM ([2]; compound concentration 1 μM, read-out: Percentage inhibition of ligand binding to Adrenergic α2B receptor) [%] | inhibition at 1 µM ([3]; compound concentration 1 μM, read-out: Percentage inhibition of ligand binding to 5-HT2C receptor) [%] | inhibition at 1 µM ([4]; compound concentration 1 μM, read-out: Percentage inhibition of ligand binding to H2 receptor) [%]
1 | CC1c2c(c3cc(Cl)ccc3n2C#Cc2ccc(F)cc2)CCN1C (stereo not drawn) [Compound 128] | 81 | 94 | 101 | 53 | – | – | – | – | –
2 | CN1CCc2c(n(CC(=O)N3CCCC3)c3ccc(Cl)cc23)C1 [Compound 40, 2-(6-chloro-1,2,3,4-tetrahydro-2-methylpyrido[3,4-b]indol-9-yl)-1-(pyrrolidin-1-yl)ethanone] | 1 | 18 | 12 | 4 | – | – | – | – | –
3 | C/C(=C/n1c2c(c3cc(C)ccc31)CCN(C)C2C)c1ccccc1F (stereo not drawn) [Compound 165] | 86 | 91 | 93 | 22 | – | – | – | – | –
4 | CN1CCc2c(n(CC(=O)N3CCCCC3)c3ccc(Cl)cc23)C1 [Compound 58, 2-(6-chloro-2-methyl-3,4-dihydro-1H-pyrido[3,4-b]indol-9(2H)-yl)-1-(piperidin-1-yl)ethanone] | -12 | -15 | 30 | 11 | – | – | – | – | –
5 | CN1CCc2c(n(CCCc3ccccc3)c3ccc(Cl)cc23)C1 [Compound 29, 6-chloro-2,3,4,9-tetrahydro-2-methyl-9-(3-phenylpropyl)-1H-pyrido[3,4-b]indole] | 96 | 79 | 90 | 60 | – | – | – | – | –
6 | COC(=O)Cn1c2c(c3cc(Cl)ccc31)CCN(C)C2 [Compound 54, methyl 2-(6-chloro-2-methyl-3,4-dihydro-1H-pyrido[3,4-b]indol-9(2H)-yl)acetate] | 4 | 18 | – | 21 | −1 | – | – | – | –
7 | CN1CCc2c(n(CC(=O)N(C)C)c3ccc(Cl)cc23)C1 [Compound 16, 2-(6-chloro-1,2,3,4-tetrahydro-2-methylpyrido[3,4-b]indol-9-yl)-N,N-dimethylacetamide] | -4 | -7 | -18 | 1 | – | – | – | – | –
8 | C/C(=C/n1c2c(c3cc(Cl)ccc31)CCN(C)C2C)c1ccccc1F (stereo not drawn) [Compound 167] | 92 | 94 | 95 | 51 | – | – | – | – | –
9 | CN1CCc2c(n(CC(C)(O)c3ccc(F)cc3)c3ccc(Cl)cc23)C1 (stereo not drawn) [Compound 62, 1-(6-chloro-2-methyl-3,4-dihydro-1H-pyrido[3,4-b]indol-9(2H)-yl)-2-(4-fluorophenyl)propan-2-ol] | 90 | 102 | 95 | 48 | – | – | – | – | –
10 | Cc1ccc2c(c1)c1c(n2/C=C/c2ccccc2)CN(C)CC1 [Compound 92] | 96 | 104 | 96 | 50 | – | 96 | 104 | 96 | 50
11 | C/C(=C\n1c2c(c3cc(Cl)ccc31)CCN(C)C2C)c1ccc(Cl)cc1 (stereo not drawn) [Compound 99, 6-chloro-9-(2-(4-chlorophenyl)prop-1-enyl)-1,2-dimethyl-2,3,4,9-tetrahydro-1H-pyrido[3,4-b]indole] | 59 | 77 | 97 | 62 | – | – | – | – | –
12 | CCC1c2c(c3cc(Cl)ccc3n2/C=C(\C)c2ccc(Cl)cc2)CCN1C (stereo not drawn) [Compound 100, 6-chloro-9-(2-(4-chlorophenyl)prop-1-enyl)-1-ethyl-2-methyl-2,3,4,9-tetrahydro-1H-pyrido[3,4-b]indole] | 56 | 53 | 98 | 39 | – | – | – | – | –
13 | Cc1ccc2c(c1)c1c(n2CC(=O)O)CN(C)CC1 [Compound 53, 2-(1,2,3,4-tetrahydro-2,6-dimethylpyrido[3,4-b]indol-9-yl)acetic acid] | 5 | 6 | -3 | 0 | – | – | – | – | –
14 | CC1c2c(c3cc(Cl)ccc3n2C#Cc2ccc(Cl)cc2)CCN1C (stereo not drawn) [Compound 132, 6-chloro-9-((4-chlorophenyl)ethynyl)-1,2-dimethyl-2,3,4,9-tetrahydro-1H-pyrido[3,4-b]indole] | 13 | 84 | 94 | 57 | – | – | – | – | –
15 | Cc1ccc2c(c1)c1c(n2CCC(=O)N2CCCCC2)CN(C)CC1 [Compound 43, 3-(1,2,3,4-tetrahydro-2,6-dimethylpyrido[3,4-b]indol-9-yl)-1-(piperidin-1-yl)propan-1-one] | 42 | -14 | 31 | 6 | – | – | – | – | –
16 | CCC1c2c(c3cc(Cl)ccc3n2C#Cc2ccc(F)cc2)CCN1C (stereo not drawn) [Compound 129] | 75 | 81 | 107 | 26 | – | – | – | – | –
17 | COC(=O)Cn1c2c(c3cc(C)ccc31)CCN(C)C2 [Compound 21, methyl 2-(1,2,3,4-tetrahydro-2,6-dimethylpyrido[3,4-b]indol-9-yl)acetate] | 0 | 11 | – | 2 | 16 | – | – | – | –
